Columns and labels:
[1] = Compound cytotoxicity, XTT-based colorimetric assay; format: cell-based; conditions: human; uninfected MT2 cells, day 4, XTT; read-out: CC50
How it was run: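 CC50 derived from XTT colorimetric signal measured on day 4 in MT2 cells that were not infected. All other steps followed the antiviral assay protocol.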

[2] = system: recombinant NL4-3 virus (nef section replaced with Renilla luciferase gene) in MT-2 cells; experiment: HIV cell culture assay (antiviral activity, luciferase readout); format: cell-based; conditions: Renilla, NL43, MT-2 cells infected for 4-5 days with recombinant NL4-3 Renilla luciferase virus
How it was run: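 Reporter virus is produced in 293T cells and its titer set in MT-2 cells by luciferase activity. MT-2 cells are then infected in the presence of serially diluted compound for 4-5 days. Luciferase is quantified and EC50 fitted to the median effect equation.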

Row | Compound | CC50 at 4 days [1] | EC50 [2]
1 | CS(=O)(=O)Nc1nn(CCN2C[C@H]3CC[C@@H](C2)O3)c2c(-n3c([C@H](Cc4cc(F)cc(F)c4)NC(=O)Cn4nc(C5CC5)c5c4C[C@@H]4C[C@H]54)nc4nc(C5CCC(F)(F)CC5)cc(C(F)F)c4c3=O)ccc(Cl)c12 (atropisomer, axis not shown; (P)) [Example 288, N-[(1S)-1-[(3P)-3-(4-chloro-3-methanesulfonamido-1-{2-[(1R,5S)-8-oxa-3-azabicyclo[3.2.1]octan-3-yl]ethyl}-1H-indazol-7-yl)-7-(4,4-difluorocyclohexyl)-5-(difluoromethyl)-4-oxo-3H,4H-pyrido[2,3-d]pyrimidin-2-yl]-2-(3,5-difluorophenyl)ethyl]-2-[(2S,4S)-9-cyclopropyl-7,8-diazatricyclo[4.3.0.0^2,^4]nona-1(6),8-dien-7-yl]acetamide] | > 50000 pM | 8 pM
2 | Cc1cc(C2CCC(F)(F)CC2)nc2nc([C@H](Cc3cc(F)cc(F)c3)NC(=O)Cn3nc(C4CC4)c4c3C[C@@H]3C[C@H]43)n(-c3ccc(Cl)c4c(NS(C)(=O)=O)nn(CCN5CCC(F)CC5)c34)c(=O)c12 (atropisomer, axis not shown; (P)) [Example 277, N-[(1S)-1-[(3P)-3-{4-chloro-1-[2-(4-fluoropiperidin-1-yl)ethyl]-3-methanesulfonamido-1H-indazol-7-yl}-7-(4,4-difluorocyclohexyl)-5-methyl-4-oxo-3H,4H-pyrido[2,3-d]pyrimidin-2-yl]-2-(3,5-difluorophenyl)ethyl]-2-[(2S,4S)-9-cyclopropyl-7,8-diazatricyclo[4.3.0.0^2,^4]nona-1(6),8-dien-7-yl]acetamide] | > 50000 pM | 9 pM
3 | CS(=O)(=O)Nc1nn(CCN2C[C@H]3C[C@@H]2CO3)c2c(-n3c([C@H](Cc4cc(F)cc(F)c4)NC(=O)Cn4nc(C5CC5)c5c4C[C@@H]4C[C@H]54)nc4nc(C5CCC(F)(F)CC5)cc(C(F)F)c4c3=O)ccc(Cl)c12 (atropisomer, axis not shown; (P)) [Example 298, N-[(1S)-1-[(3P)-3-(4-chloro-3-methanesulfonamido-1-{2-[(1R,4R)-2-oxa-5-azabicyclo[2.2.1]heptan-5-yl]ethyl}-1H-indazol-7-yl)-7-(4,4-difluorocyclohexyl)-5-(difluoromethyl)-4-oxo-3H,4H-pyrido[2,3-d]pyrimidin-2-yl]-2-(3,5-difluorophenyl)ethyl]-2-[(2S,4S)-9-cyclopropyl-7,8-diazatricyclo[4.3.0.0^2,^4]nona-1(6),8-dien-7-yl]acetamide] | > 50000 pM | 16 pM
4 | Cc1cc(C2CCC(F)(F)CC2)nc2nc([C@H](Cc3cc(F)cc(F)c3)NC(=O)Cn3nc(C4CC4)c4c3C[C@@H]3C[C@H]43)n(-c3ccc(Cl)c4c(NS(C)(=O)=O)nn(CCN5C[C@H](C)OC(C)(C)C5)c34)c(=O)c12 (atropisomer, axis not shown; (P)) [Example 458, N-[(1S)-1-[(3P)-3-(4-chloro-3-methanesulfonamido-1-{2-[(6S)-2,2,6-trimethylmorpholin-4-yl]ethyl}-1H-indazol-7-yl)-7-(4,4-difluorocyclohexyl)-5-methyl-4-oxo-3H,4H-pyrido[2,3-d]pyrimidin-2-yl]-2-(3,5-difluorophenyl)ethyl]-2-[(2S,4S)-9-cyclopropyl-7,8-diazatricyclo[4.3.0.0^2,^4]nona-1(6),8-dien-7-yl]acetamide] | > 20000 pM | 7 pM
5 | Cc1cc(C2CCC(F)(F)CC2)nc2nc([C@H](Cc3cc(F)cc(F)c3)NC(=O)Cn3nc(C(F)F)c4c3C(F)(F)[C@@H]3C[C@H]43)n(-c3ccc(Cl)c4c(NS(C)(=O)=O)nn([C@@H](C)CN5CC(C)(C)OC(C)(C)C5)c34)c(=O)c12 (atropisomer, axis not shown; (P)) [Example 742, N-[(1S)-1-[(3P)-3-{4-chloro-3-methanesulfonamido-1-[(2S)-1-(2,2,6,6-tetramethylmorpholin-4-yl)propan-2-yl]-1H-indazol-7-yl}-7-(4,4-difluorocyclohexyl)-5-methyl-4-oxo-3H,4H-pyrido[2,3-d]pyrimidin-2-yl]-2-(3,5-difluorophenyl)ethyl]-2-[(2S,4R)-9-(difluoromethyl)-5,5-difluoro-7,8-diazatricyclo[4.3.0.0^2,^4]nona-1(6),8-dien-7-yl]acetamide] | > 20000 pM | 26 pM
6 | COCCCn1nc(NS(C)(=O)=O)c2c(Cl)ccc(-n3c([C@H](Cc4cc(F)cc(F)c4)NC(=O)Cn4nc(C(F)F)c5c4C(F)(F)[C@@H]4C[C@H]54)nc4nc(C5CCC(F)(F)CC5)cc(CN5C[C@@H](F)[C@@H](F)C5)c4c3=O)c21 (atropisomer, axis not shown; (P)) [Example 530, N-[(1S)-1-[(3P)-3-[4-chloro-3-methanesulfonamido-1-(3-methoxypropyl)-1H-indazol-7-yl]-7-(4,4-difluorocyclohexyl)-5-{[(3R,4S)-3,4-difluoropyrrolidin-1-yl]methyl}-4-oxo-3H,4H-pyrido[2,3-d]pyrimidin-2-yl]-2-(3,5-difluorophenyl)ethyl]-2-[(2S,4R)-9-(difluoromethyl)-5,5-difluoro-7,8-diazatricyclo[4.3.0.0^2,^4]nona-1(6),8-dien-7-yl]acetamide] | > 20000 pM | 8 pM
7 | Cc1cc(C2(F)CCC(F)(F)CC2)nc2nc([C@H](Cc3cc(F)cc(F)c3)NC(=O)Cn3nc(C4CC4)c4c3C[C@@H]3C[C@H]43)n(-c3ccc(Cl)c4c(NS(C)(=O)=O)nn(CCN5CCOCC5(C)C)c34)c(=O)c12 (atropisomer, axis not shown; (P)) [Example 586, N-[(1S)-1-[(3P)-3-{4-chloro-1-[2-(3,3-dimethylmorpholin-4-yl)ethyl]-3-methanesulfonamido-1H-indazol-7-yl}-5-methyl-4-oxo-7-(1,4,4-trifluorocyclohexyl)-3H,4H-pyrido[2,3-d]pyrimidin-2-yl]-2-(3,5-difluorophenyl)ethyl]-2-[(2S,4S)-9-cyclopropyl-7,8-diazatricyclo[4.3.0.0^2,^4]nona-1(6),8-dien-7-yl]acetamide] | > 20000 pM | 16 pM
8 | COCCCn1nc(NS(C)(=O)=O)c2c(Cl)ccc(-n3c([C@H](Cc4cc(F)cc(F)c4)NC(=O)Cn4nc(C(F)F)c5c4C(F)(F)[C@@H]4C[C@H]54)nc4nc(C5CCC(F)(F)CC5)cc(NCCOC)c4c3=O)c21 (atropisomer, axis not shown; (P)) [Example 135, N-[(1S)-1-[(3P)-3-[4-chloro-3-methanesulfonamido-1-(3-methoxypropyl)-1H-indazol-7-yl]-7-(4,4-difluorocyclohexyl)-5-[(2-methoxyethyl)amino]-4-oxo-3H,4H-pyrido[2,3-d]pyrimidin-2-yl]-2-(3,5-difluorophenyl)ethyl]-2-[(2S,4R)-9-(difluoromethyl)-5,5-difluoro-7,8-diazatricyclo[4.3.0.0^2,4]nona-1(6),8-dien-7-yl]acetamide] | > 50000 pM | 13 pM
9 | Cc1cc(C2CCC(F)(F)CC2)nc2nc([C@H](Cc3cc(F)cc(F)c3)NC(=O)Cn3nc(C(F)F)c4c3C(F)(F)[C@@H]3C[C@H]43)n(-c3ccc(Cl)c4c(NS(C)(=O)=O)nn(CCN5CCC(F)(F)C5)c34)c(=O)c12 (atropisomer, axis not shown; (P)) [Example 231, N-[(1S)-1-[(3P)-3-{4-chloro-1-[2-(3,3-difluoropyrrolidin-1-yl)ethyl]-3-methanesulfonamido-1H-indazol-7-yl}-7-(4,4-difluorocyclohexyl)-5-methyl-4-oxo-3H,4H-pyrido[2,3-d]pyrimidin-2-yl]-2-(3,5-difluorophenyl)ethyl]-2-[(2S,4R)-9-(difluoromethyl)-5,5-difluoro-7,8-diazatricyclo[4.3.0.0^2,^4]nona-1(6),8-dien-7-yl]acetamide] | > 50000 pM | 10 pM
10 | COCCCn1nc(NS(C)(=O)=O)c2c(Cl)ccc(-n3c([C@H](Cc4cc(F)cc(F)c4)NC(=O)Cn4nc(C(F)F)c5c4C(F)(F)[C@@H]4C[C@H]54)nc4nc(C5CCC(F)(F)CC5)cc(NCC5(F)CCOCC5)c4c3=O)c21 (atropisomer, axis not shown; (P)) [Example 484, N-[(1S)-1-[(3P)-3-[4-chloro-3-methanesulfonamido-1-(3-methoxypropyl)-1H-indazol-7-yl]-7-(4,4-difluorocyclohexyl)-5-{[(4-fluorooxan-4-yl)methyl]amino}-4-oxo-3H,4H-pyrido[2,3-d]pyrimidin-2-yl]-2-(3,5-difluorophenyl)ethyl]-2-[(2S,4R)-9-(difluoromethyl)-5,5-difluoro-7,8-diazatricyclo[4.3.0.0^2,^4]nona-1(6),8-dien-7-yl]acetamide] | > 20000 pM | 6 pM
11 | CS(=O)(=O)Nc1nn(CCN2C[C@@H](F)[C@@H](F)C2)c2c(-n3c([C@H](Cc4cc(F)cc(F)c4)NC(=O)Cn4nc(C(F)F)c5c4C(F)(F)[C@@H]4C[C@H]54)nc4nc(C5CCC(F)(F)CC5)ccc4c3=O)ccc(Cl)c12 (atropisomer, axis not shown; (P)) [Example 26, N-[(1S)-1-[(3P)-3-(4-chloro-1-{2-[(3R,4S)-3,4-difluoropyrrolidin-1-yl]ethyl}-3-methanesulfonamido-1H-indazol-7-yl)-7-(4,4-difluorocyclohexyl)-4-oxo-3H,4H-pyrido[2,3-d]pyrimidin-2-yl]-2-(3,5-difluorophenyl)ethyl]-2-[(2S,4R)-9-(difluoromethyl)-5,5-difluoro-7,8-diazatricyclo[4.3.0.0^2,^4]nona-1(6),8-dien-7-yl]acetamide] | > 50000 pM | 11 pM

— patent US12594276B2, “Inhibitors of human immunodeficiency virus replication” (ViiV Healthcare UK (No.5) Limited, priority 2024, dated 2026)
